Values quoted from earlier work in patent US20230355939A1, “DEVICES AND METHODS FOR CONTINUOUS EXTRUSION OF A DRUG INTO THE MOUTH” (SynAgile Corporation, priority 2020, published 2023).

How the values were obtained:
[1] = for Approximate Pressure (vapor pressure): at 37° C.

Row | SMILES | Approximate Pressure (vapor pressure) [1] | vapor pressure ([1]; at about 23 ± 3° C.) | solubility
1 | FC(C(F)(F)F)C(F)(F)F [1,1,1,2,3,3,3-hepta-fluoropropane] | ~6.4 bars | – | –
2 | FCC(F)(F)F [1,1,1,2-tetrafluoroethane] | ~9.3 bars | about 5 bars | –
3 | FC(F)(F)CC(F)(F)F [1,1,1,3,3,3 hexafluoropropane] | ~4.0 bars | – | –
4 | FCCF [1,2-difluoroethane] | ~1.9 bars | – | –
5 | CCCCF [1-fluorobutane] | ~1.3 bars | – | –
6 | CCCF [1-fluoropropane] | ~4.1 bars | – | –
7 | CC=CC [2-butene] | ~3.2 bars | – | –
8 | CC(C)F [2-fluoropropane] | ~5 bars | – | –
9 | N[C@@H](Cc1ccc(O)c(O)c1)C(=O)O [LD, levodopa] | – | – | about 50 mg/mL
10 | CCCC [butane] | ~3.5 bars | – | –
11 | CCOCC [diethyl ether] | ~1.1 bars | – | –
12 | CCC(C)C [isopentane] | ~1.4 bars | – | –
13 | CCOC [methyl ethyl ether] | ~3 bars | – | –
14 | CC(C)(C)C [neopentane] | ~2.4 bars | – | –
15 | FC1(F)C(F)(F)C(F)(F)C1(F)F [octafluorocyclobutane] | ~4.3 bars | – | –
16 | CCC [propane] | ~12.8 bars | – | –
17 | C=CC [propene] | ~15.5 bars | – | –
